Measured values taken from patent US7122173B2, “Agent for the treatment of bladder irritative symptoms accompanied by benign prostatic hyperplasia” (Kyowa Hakko Kogyo Co., Ltd., priority 2001, dated 2006).

Tests used:
[1] = tested on: delayed rectifier K^+ channel; assay: Voltage clamp, delayed rectifier K+ currents (HP −20 mV) in unidentified DRG neurons; format: cell-based, rat; details: for K+ current HP: −20 mV (delayed rectifier), relative value (before drug = 1): unidentified DRG neurons
Experimental: (§1) Experiments were performed on adult female Sprague Dawley rats. First and second series of the experiments were performed, respectively, in unidentified DRG neurons and a specific population of DRG neurons innervating the urinary bladder. The population of DRG neurons that innervate the urinary bladder were labeled by retrograde axonal transport of the fluorescent dye, Fast Blue (4% w/v) (Polyloy, Gross Umstadt, Germany), injected into the wall of the bladder in halothane-anesthetized animals 7 days before the dissociation. The dye was injected with a 28 gauge needle at three to six sites on the dorsal surface of the organ (5–6 μL per site, total volume of 20–30 μL). Each injection site was washed with saline to minimize contamination of adjacent organs with the dye.
(§2) Freshly dissociated neurons from DRG were prepared from halothane-anesthetized animals. L6 and S1 DRG were dissected from animals and then dissociated in a shaking bath for 25 minutes at 35° C. with 5 mL DMEM (Sigma) containing 0.3 mg/mL trypsin (Type 3, Sigma), 1 mg/mL collagenase (Type 1, Sigma), and 0.1 mg/mL deoxyribonuclease (Type 4, Sigma). Trypsin inhibitor (Type 2a, Sigma) was then added thereto to neutralize the activity of trypsin. Individual DRG cell bodies were isolated by trituration and then plated on a poly-L-lysine-coated 35 mm Petri dishes.
(§3) Dye-labeled primary afferent neurons that innervate the urinary bladder were identified using an inverted phase-contrast microscope (Nikon, Tokyo, Japan) with fluorescent attachments (UV-1A filter; excitation wavelength, 365 nm). Gigaohm-seal whole-cell recordings were performed at room temperature (20–22° C.) on each labeled neuron in a culture dish that usually contained three to seven labeled cells among a few hundred unlabeled neurons. The internal solution contained (in mmol/L): KCl 140, CaCl2 1, MgCl2 2, EGTA 11, HEPES 10, Mg-ATP 2, and Tris-GTP 0.4 adjusted to pH 7.4 with KOH. Patch electrodes had resistances of 1–4 M Ω when filled with the internal solution. Neurons were superfused at a flow rate of 1.5 mL/minutes with an external solution containing (in mmol/L): NaCl 150, KCl 5, CaCl2 2.5, MgCl2 1, HEPES 10, and D-glucose 10, adjusted to pH 7.4 with NaOH. All recordings were made with an Axopatch-1D patch-clamp amplifier (Axon Instruments, Foster City, Calif.), and data were acquired and analyzed by PCLAMP software (Axon Instruments).
In voltage-clamp recordings, outward K^+ currents and inward Na^+ currents were measured. For the isolation of K^+ currents, the external solution was changed to one containing (in mmol/L): choline-Cl 150, KOH 5, CaCl2 0.03, HEPES 10, Mg(OH)2 3, and D-glucose 10, adjusted to pH 7.4 with HCl.
In first series of experiments using unidentified DRG neurons, outward K^+ currents were evoked by voltage steps to +60 mV, 800 ms long from a holding potentials of −90 mV, this was followed by a 1-second conditioning pre-pulse to −20 mV followed by a second pulse to +60 mV, identical to the first in the sequence. In the second series of experiments using Fast Blue-labeled bladder afferent neurons, slowly-inactivating A-type K^+ currents were isolated by subtraction of outward K^+ currents activated from a holding potential of −40 mV (on the condition of inactivation of the majority of slowly-inactivating A-type K^+ currents) from those activated from a holding potential of −120 mV (on the condition of full activation of slowly-inactivating A-type K^+ currents). A compound was added cumulatively, starting with a lower concentration. Currents were measured at the maximum (peak) and normalized to control (before addition of the compound).
The currents at a holding potential (HP) of −90 mV are results of the measurement of slowly-inactivating A-type K^+ currents, and the currents at an HP value of −20 mV are results of the measurement of delayed rectifier K^+ currents. […]

[2] = tested on: Na^+ currents in DRG cells; assay: Voltage clamp, inward Na+ currents in DRG cells; format: cell-based, rat
Experimental: as §1, §2, §3
Inward Na^+ currents were evoked by voltage steps to +60 mV, 800 ms long from a holding potentials of −90 mV. Currents were measured at the maximum (peak) and normalized to control (before addition of the compound).

dd male mice = details: mouse, in vivo, po, 7 day
Experimental: The test compound was administered orally or intraperitoneally to 3 animals per group of dd male mice (body weight, 20±1 g). Minimum lethal dose (MLD) value was obtained by observing mortality on the 7th day after the administration.

SMILES: C[C@](O)(C(=O)Nc1cccc2c1C(=O)c1sccc1CS2(=O)=O)C(F)(F)F [Compound 1, (S)-(+)-N-(5,5-dioxido-10-oxo-4,10-dihydrothieno[3,2-c][1]benzothiepin-9-yl)-3,3,3-trifluoro-2-hydroxy-2-methylpropanamide]
- K+ current HP: −20 mV, relative value (before drug = 1) ([1]; Compound 1 1.0 × 10^−5 mol/L, in the presence of 5 μmol/L verapamil): 1.00 ± 0.02
- K+ current HP: −20 mV, relative value (before drug = 1) ([1]; Compound 1 1.0 × 10^−5 mol/L, in the presence of 20 mmol/L tetraethylammonium): 1.01 ± 0.02
- K+ current HP: −20 mV (delayed rectifier), relative value (before drug = 1) ([1]; Compound 1 1.0 × 10^−5 mol/L): 0.88 ± 0.07
- K+ current HP: −20 mV, relative value (before drug = 1) ([1]; Compound 1 1.0 × 10^−6 mol/L, in the presence of 5 μmol/L verapamil): 1.00 ± 0.01
- K+ current HP: −20 mV, relative value (before drug = 1) ([1]; Compound 1 1.0 × 10^−6 mol/L, in the presence of 20 mmol/L tetraethylammonium): 1.00 ± 0.00
- K+ current HP: −20 mV (delayed rectifier), relative value (before drug = 1) ([1]; Compound 1 1.0 × 10^−6 mol/L): 1.00 ± 0.02
- K+ current HP: −20 mV, relative value (before drug = 1) ([1]; Compound 1 1.0 × 10^−7 mol/L, in the presence of 5 μmol/L verapamil): 1.00 ± 0.01
- K+ current HP: −20 mV, relative value (before drug = 1) ([1]; Compound 1 1.0 × 10^−7 mol/L, in the presence of 20 mmol/L tetraethylammonium): 0.99 ± 0.02
- K+ current HP: −20 mV (delayed rectifier), relative value (before drug = 1) ([1]; Compound 1 1.0 × 10^−7 mol/L): 1.02 ± 0.01
- K+ current HP: −20 mV (delayed rectifier), relative value (before drug = 1) ([1]; Compound 1 1.0 × 10^−8 mol/L): 0.98 ± 0.04
- K+ current HP: −20 mV (delayed rectifier), relative value (before drug = 1) ([1]; Compound 1 2.5 × 10^−8 mol/L): 1.01 ± 0.03
- K+ current HP: −20 mV, relative value (before drug = 1) ([1]; Compound 1 5.0 × 10^−4 mol/L, in the presence of 5 μmol/L verapamil): 0.83 ± 0.06
- K+ current HP: −20 mV, relative value (before drug = 1) ([1]; Compound 1 5.0 × 10^−4 mol/L, in the presence of 20 mmol/L tetraethylammonium): 0.25 ± 0.04
- K+ current HP: −20 mV, relative value (before drug = 1) ([1]; Compound 1 5.0 × 10^−4 mol/L, in the presence of 60 mmol/L tetraethylammonium): 0.54 ± 0.02
- K+ current HP: −20 mV, relative value (before drug = 1) ([1]; Compound 1 5.0 × 10^−5 mol/L, in the presence of 5 μmol/L verapamil): 0.98 ± 0.01
- K+ current HP: −20 mV, relative value (before drug = 1) ([1]; Compound 1 5.0 × 10^−5 mol/L, in the presence of 20 mmol/L tetraethylammonium): 0.84 ± 0.06
- K+ current HP: −20 mV, relative value (before drug = 1) ([1]; Compound 1 5.0 × 10^−5 mol/L, in the presence of 60 mmol/L tetraethylammonium): 0.95 ± 0.03
- K+ current HP: −20 mV (delayed rectifier), relative value (before drug = 1) ([1]; Compound 1 5.0 × 10^−5 mol/L): 0.81 ± 0.08
- K+ current HP: −20 mV, relative value (before drug = 1) ([1]; Compound 1 5.0 × 10^−6 mol/L, in the presence of 5 μmol/L verapamil): 1.01 ± 0.01
- K+ current HP: −20 mV, relative value (before drug = 1) ([1]; Compound 1 5.0 × 10^−6 mol/L, in the presence of 20 mmol/L tetraethylammonium): 0.98 ± 0.01
- K+ current HP: −20 mV, relative value (before drug = 1) ([1]; Compound 1 5.0 × 10^−6 mol/L, in the presence of 60 mmol/L tetraethylammonium): 0.97 ± 0.02
- K+ current HP: −20 mV, relative value (before drug = 1) ([1]; Compound 1 5.0 × 10^−7 mol/L, in the presence of 5 μmol/L verapamil): 1.00 ± 0.01
- K+ current HP: −20 mV, relative value (before drug = 1) ([1]; Compound 1 5.0 × 10^−7 mol/L, in the presence of 20 mmol/L tetraethylammonium): 1.01 ± 0.01
- K+ current HP: −20 mV, relative value (before drug = 1) ([1]; Compound 1 5.0 × 10^−7 mol/L, in the presence of 60 mmol/L tetraethylammonium): 0.97 ± 0.03
- K+ current HP: −20 mV (delayed rectifier), relative value (before drug = 1) ([1]; Compound 1 5.0 × 10^−7 mol/L): 1.01 ± 0.02
- K+ current HP: −20 mV, relative value (before drug = 1) ([1]; Compound 1 5.0 × 10^−8 mol/L, in the presence of 5 μmol/L verapamil): 1.00 ± 0.00
- K+ current HP: −20 mV, relative value (before drug = 1) ([1]; Compound 1 5.0 × 10^−8 mol/L, in the presence of 20 mmol/L tetraethylammonium): 0.99 ± 0.01
- K+ current HP: −20 mV, relative value (before drug = 1) ([1]; Compound 1 5.0 × 10^−8 mol/L, in the presence of 60 mmol/L tetraethylammonium): 1.00 ± 0.01
- K+ current HP: −20 mV (delayed rectifier), relative value (before drug = 1) ([1]; Compound 1 5.0 × 10^−8 mol/L): 1.00 ± 0.01
- K+ current HP: −20 mV, relative value (before drug = 1) ([1]; Compound 1 5.0 × 10^−9 mol/L, in the presence of 20 mmol/L tetraethylammonium): 0.99 ± 0.00
- K+ current HP: −20 mV (delayed rectifier), relative value (before drug = 1) ([1]; Compound 1 5.0 × 10^−9 mol/L): 0.98 ± 0.02
- Na^+ ion currents, normalized to control (before addition) ([2]; Compound 1 1.0 × 10^−6 mol/L): 0.99 ± 0.02
- Na^+ ion currents, normalized to control (before addition) ([2]; Compound 1 5.0 × 10^−4 mol/L): 1.00 ± 0.01
- Na^+ ion currents, normalized to control (before addition) ([2]; Compound 1 5.0 × 10^−5 mol/L): 1.00 ± 0.01
- Na^+ ion currents, normalized to control (before addition) ([2]; Compound 1 5.0 × 10^−6 mol/L): 1.00 ± 0.00
- Na^+ ion currents, normalized to control (before addition) ([2]; Compound 1 5.0 × 10^−7 mol/L): 0.99 ± 0.01
- Na^+ ion currents, normalized to control (before addition) ([2]; Compound 1 5.0 × 10^−8 mol/L): 0.99 ± 0.01
- Influence upon Na^+ currents (in words) ([2]; DRG cells): does not exert influence upon Na^+ currents
- Minimum lethal dose (MLD) (dd male mice): > 1,000 mg/kg
